Assay results published in patent US10488416B2, “Targeting breast cancer therapy based on stromal subtypes and CD146 composition” (The Regents of the University of Colorado, a Body Corporate, priority 2014, dated 2019).

B1: HBEGF: HBEGF added to CD146pos CAF conditioned media in the invasion assay (protein, UniProt Q99075 63-148, looked up)
Heparin-binding EGF-like …: DLQEADLDLLRVTLSSKPQALATPNKEEHGKRKKKGKGLGKKRDPCLRKYKDFCIHGECKYVKELRAPSCICHPGYHGERCHGLSL

Tested on: MCF7 cells
Test: MCF7 invasion scratch wound assay through Matrigel in CAF conditioned media
Format: cell-based, human
Details: for effect on CD146neg CAF induced invasion: MCF7 in CD146neg CAF conditioned media

Molecule | effect on CD146neg CAF induced invasion | effect on CD146neg CAF induced invasion (listed as gefitibib) | effect on invasion (MCF7 in CD146pos CAF conditioned media)
COc1cc2ncnc(Nc3ccc(F)c(Cl)c3)c2cc1OCCCN1CCOCC1 [gefitinib] | successfully blocked | inhibited | –
B1 | – | – | stimulated
